Publication PMC6470589, “Contribution of Molecular Structure to Self-Assembling and Biological Properties of Bifunctional Lipid-Like 4-(N-Alkylpyridinium)-1,4-Dihydropyridines” (Pharmaceutics, 2019)
Read-outs that look alike come from different tables or passages of the source.

Key:
[1] = MTT cytotoxicity assay on MH-22A tumor cells, 72 h; assay type: cell-based, mouse; conditions: mouse, MH-22A hepatocarcinoma cells
Protocol: (§1) Tumor cell lines HT-1080 (human connective tissue fibrosarcoma) and MH-22A (mouse hepatocarcinoma) were used. All of the cells were obtained from the American Type Culture Collection ((ATCC,) Rockville, MD, USA). HT-1080 and MH-22A cells (4 × 10^4 cell/mL) were seeded in 96-well plates in Dulbecco’s modified Eagle’s medium (DMEM) containing 10% fetal bovine serum and cultivated for 72 h at 37 °C, 5% CO2 by exposure to different compounds concentrations (100 μg/mL, 25 μg/mL, 6.25 μg/mL, and 1.56 μg/mL). Cell viability was measured using 3-(4,5-dimethylthiazol-2-yl)-2,5-diphenyl-tetrazolium bromide (MTT) assay. In brief, after incubating with compounds, the culture medium was removed and fresh medium with 0.2 mg/mL MTT was added in each well of the plate. After incubation (3 h, 37 °C, 5% CO2), the medium with MTT was removed, and 200 μL of DMSO was added at once to each sample. The samples were tested at 540 nm on a Tecan multiplate reader Infinite1000 (Tecan Austria GmbH, Salzburg, Austria). The IC50 was calculated using the program Graph Pad Prism® 3.0.

[2] = tested on: six prokaryotic (bacteria) and one eukaryotic (yeast) microorganism species; test: Toxicity screen, whole panel of microorganisms; assay type: cell-based; conditions: concentrations tested 10 to 0.001 mM
Protocol: An estimation of the toxicity of 4-(N-alkylpyridinium)-1,4-DHP derivatives 3, 6, 7, and 9–11 was performed using six prokaryotic (bacteria) and one eukaryotic (yeast) microorganism species according to the procedure elaborated by Suppi et al.. The microorganisms used in the study and their origin were: Bacillus subtilis subsp. spizizenii (ATCC® 6633™*, Microbiologics®, St Cloud, MN, USA), Escherichia coli (ATCC® 8739, Microbiologics®), Klebsiella pneumoniae (Latvian Microorganisms strain collection, LMKK, strain number 535, Riga, Latvia), Micrococcus luteus (LMKK, No. 25), Pseudomonas aeruginosa (NCTC 12924, Biosciences Ltd., Dublin, Ireland), Proteus mirabilis (LMKK, No 590), and Saccharomyces cerevisiae, CEN.PK2 strain [32].
Bacteria and yeast cultures were cultivated until their exponential growth phase (optical density max 1); then, 100 µL of cell suspension was taken, washed in deionised (DI) water, and added to serially diluted samples of corresponding 4-(N-alkylpyridinium)-1,4-DHPs in DI water. All 1,4-DHPs were tested in five serially diluted concentrations (10 mM, 1 mM, 0.1 mM, 0.01 mM, and 0.001 mM). Test organisms were exposed to 1,4-DHP derivatives in DI water on 96-well microplates (Corning, Corning, NY, USA) at 28 °C for 24 h without shaking in the dark. Then, a 5 µL sample was taken from each well and spotted on yeast extract, bactopeptone, dextrose broth (YPD) (yeast extract 1%, bactopeptone 2%, glucose 2% and agar 2%) plates to test the growth of yeasts and lysogeny broth (LB) (yeast extract 0.5%, bactopeptone 1%, NaCl 0.5% and agar 2%) to test the growth for bacteria. Plates were left in 30 °C for 24 h, and assessed for microbial growth.
If there were no colonies after incubation with 1,4-DHPs in the last concentration of (0.001 mM), then their boundary concentration was set to 0.0001 mM or 0.1 µM.

[3] = Determination of critical aggregation concentration (CAC) by DLS; assay type: physicochemical; conditions: aqueous media
Protocol: The critical aggregation concentrations (CAC) of 4-(N-alkylpyridinium)-1,4-DHP derivatives were determined in aqueous media using a Zetasizer Nano S90 (Malvern Panalytical Ltd., Malvern, UK) instrument with Malvern Instruments Ltd. Software according to procedure described by Topel et al. and modified by our group. Briefly, as stock solutions of tested compounds were used, samples were prepared for self-assembling experiments. All of the subsequent samples were prepared starting from the concentrated stock solution, which was subjected to a serial two-fold dilution each time with water. The intensity values of scattered light (kcps) as a function of concentration of amphiphiles were analysed. The scattering intensities detected for amphiphile concentrations below CAC have an approximately constant value corresponding to water. The intensity starts to show a linear increase with concentration at the CAC, since the amount of nanoparticles increases in the solution. The intersection of the best-fit lines drawn through the data points is the preliminary CAC value of the compounds.

[4] = tested on: MH-22A (mouse hepatocarcinoma) cells; test: MTT cytotoxicity assay on MH-22A tumor cells, 72 h; assay type: cell-based; conditions: MTT, 72 h; ne = no effect in the tested concentration (up to 100 μg/mL)
Protocol: as §1

[5] = Basal cytotoxicity test (neutral red uptake) with estimation of LD50 from IC50; assay type: cell-based, mouse; conditions: mouse, NIH 3T3 fibroblast cells
Protocol: The neutral red uptake (NRU) assay was performed according to the standard protocol of Stokes modified by NICEATM-ECVAM validation study. The NRU cytotoxicity assay procedure was based on the ability of viable cells to incorporate and bind neutral red, which is a supravital dye.
NIH 3T3 (Mouse Swiss Albino embryo fibroblast) cells (9000 cells/well) were placed into 96-well plates for 24 h in DMEM medium containing 5% fetal bovine serum (FBS). Then, they were exposed to the test compound over a range of seven concentrations (1000 μg/mL, 316 μg/mL, 100 μg/mL, 31 μg/mL, 10 μg/mL, 3.0 μg/mL, and 1.0 μg/mL) for 24 h. Untreated cells were used as a control. After 24 h, the medium was removed from all plates. Then, 250 μL of neutral red (NR) solution was added (0.05 mg/mL NR in DMEM 24 h pre-incubated at 37 °C and then filtered before use through a 0.22-µm syringe filter). Plates were incubated for 3 h, and then, cells were washed three times with phosphate buffered saline (PBS). The dye within viable cells was released by extraction with a mixture of acetic acid, ethanol, and water (1:50:49). The absorbance of neutral red was measured using a spectrophotometer multiplate reader Infinite M1000 (Tecan Austria GmbH, Salzburg, Austria) at 540 nm. The optical density (OD) was calculated using the formula: OD (treated cells) × 100/OD (control cells). The IC50 values were calculated using the program Graph Pad Prism® 3.0.
Data from the in vitro tests were used for estimating the starting dose for acute oral systemic toxicity tests in rodent. The in vivo starting dose is an estimated LD50 value that is calculated by inserting the in vitro IC50 value into a regression formula: log LD50 (mM/kg) = 0.439 log IC50 (mM) + 0.621 [29]. The value is recalculated to mg/kg, and compounds are evaluated in accordance with four toxicity categories: category 1: LD50 ≤ 5 mg/kg (highly toxic); category 2: 5 < LD50 ≤ 50 mg/kg (moderately toxic); category 3: 50 < LD50 ≤ 300 mg/kg (slightly toxic); category 4: 300 < LD50 ≤ 2000 mg/kg (practically non-toxic). Using an alternative in vitro method enables comparing the possible toxicity of new compounds and selecting compounds for further study, which will vastly reduce the number of animal experiments.

[6] = MTT, 72 h, ne = no effect in the tested concentration (up to 100 μg/mL), read-out: Cytotoxicity IC50, MH-22A
[7] = category by estimated LD50 (mg/kg), read-out: Toxicity category from estimated LD50

For `CCCCCCCCCCCC[n+]1cccc(C2C(C(=O)OCC)=C(C)NC(C)=C2C(=O)OCC)c1` [Compound 3], the IC50 at 72 h [1, 6] was 15 ± 1 µM, the “Effect on survival of microorganisms” value [2] was “toxic at various degrees” and the CAC [3] was 9.3 µM.
Work on `C#CCN1C(C)=C(C(=O)OCC)C(c2ccc[n+](CCCCCCCCCCCC)c2)C(C(=O)OCC)=C1C` [Compound 6] yielded an IC50 at 72 h [1, 6] of 1 to 4 µM, an IC50 [4] of 1000 ± 200 nM and an LD50 at 24 h [5, 7] of 50 to 300 mg/kg. The “Effect on survival of microorganisms” value [2] was “toxic at various degrees” and the CAC [3] was 43.3 µM.
For `C#CCOC(=O)C1=C(C)NC(C)=C(C(=O)OCC#C)C1c1ccc[n+](CC)c1` [Compound 7], the IC50 at 72 h ([1]; as printed in the supplementary toxicity table, read-out: Cytotoxicity, IC50, MH-22A (supplementary table, for comparison)) was 1000 µM, the “Cytotoxicity IC50, MH-22A” value [4] was “did not demonstrate any cytotoxic effect and ne” and the LD50 at 24 h ([5]; calculated from NIH 3T3 NRU IC50, recalculated to mg/kg, read-out: Basal Cytotoxicity Estimated LD50) was over 2700 mg/kg.
In the case of `C#CCOC(=O)C1=C(C)NC(C)=C(C(=O)OCC#C)C1c1ccc[n+](CCCCCCCCCCCC)c1` [Compound 9], the IC50 at 72 h [1, 6] is reported as 1 to 4 µM, the IC50 [4] is reported as 1000 ± 200 nM and the LD50 at 24 h [5, 7] is reported as 50 to 300 mg/kg. The “Effect on survival of microorganisms” value [2] was “toxic at various degrees” and the CAC [3] was 9.3 µM.
